Literature values in patent publication US20050239189A1, “Oxidant-scavenging compound for anaerobic treatment” (priority 2004, published 2005).

Tested on: CVOC dehalogenation
Details: eight case studies reported by Regenesis, Inc. (2000)

CC(O)C(=O)O (stereo not shown) [Lactic Acid]
stimulation of CVOC dehalogenation: stimulated CVOC dehalogenation
